Results: patent publication US11319298B2 (Merck Sharp & Dohme Corp., priority 2016, dated 2022)

Biological target: T1, human M4 muscarinic acetylcholine receptor (Homo sapiens, UniProt P08173)
T1 construct: expressed in transfected cells; host or cells: CHO-K1
T1 sequence (P08173 1-479): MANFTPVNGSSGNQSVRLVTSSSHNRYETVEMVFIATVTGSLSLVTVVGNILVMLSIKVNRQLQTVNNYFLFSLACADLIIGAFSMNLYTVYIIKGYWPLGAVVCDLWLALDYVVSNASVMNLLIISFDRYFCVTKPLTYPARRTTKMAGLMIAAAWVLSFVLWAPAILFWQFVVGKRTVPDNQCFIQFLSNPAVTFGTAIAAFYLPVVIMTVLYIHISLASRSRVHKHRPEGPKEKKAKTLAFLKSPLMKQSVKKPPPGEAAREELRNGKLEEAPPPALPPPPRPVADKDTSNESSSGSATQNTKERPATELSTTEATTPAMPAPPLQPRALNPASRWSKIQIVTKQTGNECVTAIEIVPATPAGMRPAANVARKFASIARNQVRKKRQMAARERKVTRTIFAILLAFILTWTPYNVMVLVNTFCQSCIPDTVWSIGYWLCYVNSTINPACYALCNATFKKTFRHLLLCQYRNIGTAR
Test: human FLIPR-based M4 PAM assay, CHO-K1 cells stably transfected with human M4 receptor and chimeric G-protein Gαqi5
Assay type: cell-based
Conditions: inflection point (IP) of dose response curve; acetylcholine added at 20% of maximum response; CHO-K1 human M4/Gαqi5, FLIPR Tetra
How it was run: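 CHO-K1 cells were loaded with calcium dye at 37 °C for ~1 h. Fluorescence (ex 470–495/em 515–575 nm) was read for 4 min after test compound at increasing concentrations, then 3.5 min after acetylcholine at an EC20; sometimes a third addition at EC70 followed. The value is the inflection point of a 4-parameter logistic fit.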

EC50 [nM] | Compound
121 | CNC(=O)c1cc(C)c(N2CCC(Oc3ccc(OC)nc3)CC2)nn1 [Example 129, 6-{4-[(6-methoxypyridin-3-yl)oxy]piperidin-1-yl}-N,5-dimethylpyridazine-3-carboxamide]
85 | COc1ccc(OC2CCN(c3nnc(C(=O)OCc4ccncc4)cc3C)CC2)cn1 [Example 106A, Pyridin-4-ylmethyl 6-(4-((6-methoxypyridin-3-yl)oxy)piperidin-1-yl)-5-methylpyridazine-3-carboxylate]
1130 | Cc1nnc(N2CCC(Oc3cccc(C#N)c3)CC2)c(C#N)c1C [Example 11, 3-(4-(3-cyanophenoxy)piperidin-1-yl)-5,6-dimethylpyridazine-4-carbonitrile]
64 | COC(=O)c1cc(C)c(N2CCC(Oc3cccc(C#N)c3)CC2)nn1 [Example 58, methyl 6-(4-(3-cyanophenoxy)piperidin-1-yl)-5-methylpyridazine-3-carboxylate]
44 | COc1ccc(OC2CCN(c3nc(CO)nc(Cl)c3C)CC2)cc1C#N [Example 48, 5-((1-(6-chloro-2-(hydroxymethyl)-5-methylpyrimidin-4-yl)piperidin-4-yl)oxy)-2-methoxybenzonitrile]
121 | CONC(=O)c1cc(C)c(N2CCC(Oc3ccc(OC)nc3)CC2)nn1 [Example 128, N-methoxy-6-{4-[(6-methoxypyridin-3-yl)oxy]piperidin-1-yl}-5-methylpyridazine-3-carboxamide]
58 | CCOC(=O)c1cc(C)c(N2CCC(Oc3cccc(C#N)c3)CC2)nn1 [Example 105, ethyl 6-(4-(3-cyanophenoxy)piperidin-1-yl)-5-methylpyridazine-3-carboxylate]
1170 | COc1ccc(OC2CCN(c3nnc(C)c(C)c3C#N)CC2)cn1 [Example 86, 3-(4-((6-methoxypyridin-3-yl)oxy)piperidin-1-yl)-5,6-dimethylpyridazine-4-carbonitrile]
1020 | COc1ccc(OC2CCN(c3nc(C(=O)NC4CCc5cccnc5C4)nc(Cl)c3C)CC2)cn1 (stereo not drawn) [Example 217, 4-chloro-6-(4-((6-methoxypyridin-3-yl)oxy)piperidin-1-yl)-5-methyl-N-(5,6,7,8-tetrahydroquinolin-7-yl)pyrimidine-2-carboxamide]
35 | COc1ccc(OC2CCN(c3nnc(C(=O)NCc4ccccc4)cc3C)CC2)cn1 [Example 193, N-benzyl-6-{4-[(6-methoxypyridin-3-yl)oxy]piperidin-1-yl}-5-methylpyridazine-3-carboxamide]
1710 | COc1ccc(OC2CCN(c3ncnc(-c4ccoc4)c3C)CC2)cn1 [Example 252, 4-(furan-3-yl)-6-(4-((6-methoxypyridin-3-yl)oxy)piperidin-1-yl)-5-methylpyrimidine]
745 | CSc1nc(Cl)c(C)c(N2CCC(Oc3cccnc3)CC2)n1 [Example 15, 4-chloro-5-methyl-2-(methylthio)-6-(4-(pyridin-3-yloxy)piperidin-1-yl)pyrimidine]
139 | CONC(=O)c1cc(C)c(N2CCC(Oc3cccc(C#N)c3)CC2)nn1 [Example 132, 6-[4-(3-cyanophenoxy)piperidin-1-yl]-N-methoxy-5-methypyridazine-3-carboxamide]
210 | Cc1c(Cl)nc(CO)nc1N1CCC(Oc2ccc3c(c2)C(=O)N(C)C3)CC1 [Example 33, 6-((1-(6-chloro-2-(hydroxymethyl)-5-methypyrimidin-4-yl)piperidin-4-yl)oxy)-2-methylisoindolin-1-one]

Second part, the compound before the results:

Compound | EC50 [nM]
Cc1nc2ccc(O[C@@H]3CCN(c4nc(CO)nc(Cl)c4C)C[C@@H]3F)cc2o1 [Example 52, (4-chloro-6-((3S,4R)-3-fluoro-4-((2-methylbenzo[d]oxazol-6-yl)oxy)piperidin-1-yl)-5-methylpyrimidin-2-yl)methanol] | 53
COc1ccc(OC2CCN(c3nc(CO)nc(Cl)c3C)CC2)cc1 [Example 47, (4-chloro-6-(4-(4-methoxyphenoxy)piperidin-1-yl)-5-methypyrimidin-2-yl)methanol] | 25
Cc1nc(Cl)c(C)c(N2CCC(Oc3ccc4nn(C)cc4c3)CC2)n1 [Example 67, 5-((1-(6-chloro-2,5-dimethypyrimidin-4-yl)piperidin-4-yl)oxy)-2-methyl-2H-indazole] | 108
Cc1ncc(C)c(N2CC[C@@H](Oc3cccc(C#N)c3)[C@@H](F)C2)n1 [Example 75, 3-(((3S,4R)-1-(2,5-dimethylpyrimidin-4-yl)-3-fluoropiperidin-4-yl)oxy)benzonitrile] | 156
COc1ccc(OC2CCN(c3nc(C(=O)NC(C)(C)C)nc(Cl)c3C)CC2)cn1 [Example 212] | 705
COc1ccc(OC2CCN(c3nnc(C(=O)NC4(C)CCCC4)cc3C)CC2)cn1 [Example 185, 6-{4-[(6-methoxypyridin-3-yl)oxy]piperidin-1-yl}-5-methyl-N-(1-methylcyclopentyl)pyridazine-3-carboxamide] | 1040
Cc1c(Cl)ncnc1N1CCC(Oc2cccc(C#N)c2)CC1 [Example 50, 3-((1-(6-chloro-5-methypyrimidin-4-yl)piperidin-4-yl)oxy)benzonitrile] | 49
COc1ccc(OC2CCN(c3nnc(C(=O)Nc4cccnc4)cc3C)CC2)cn1 [Example 137, 6-{4-[(6-methoxypyridin-3-yl)oxy]piperidin-1-yl}-5-methyl-N-pyridin-3-ylpyridazine-3-carboxamide] | 175
Cc1cc(C(=O)NC2C3CC2C3)nnc1N1CCC(Oc2ccc3[nH]ncc3c2)CC1 (stereo not drawn) [Example 124, N-bicyclo[1.1.1]pent-2-yl-6-[4-(1H-indazol-5-yloxy)piperidin-1-yl]-5-methylpyridazine-3-carboxamide] | 101
COc1ccc(OC2CCN(c3nnc(C(=O)N[C@H]4CCc5ncccc5C4)cc3C)CC2)cn1 [Example 141B, (S)-6-(4-((6-methoxypyridin-3-yl)oxy)piperidin-1-yl)-5-methyl-N-(5,6,7,8-tetrahydroquinolin-6-yl)pyridazine-3-carboxamide] | 173
Cc1cc(C(=O)NCc2ccncc2)nnc1N1CCC(Oc2cccnc2)CC1 [Example 122, 5-methyl-N-(pyridin-4-ylmethyl)-6-[4-(pyridin-3-yloxy)piperidin-1-yl]pyridazine-3-carboxamide] | 101
Cc1nc2ccc(OC3CCN(c4nnc(C(=O)NCc5ccncc5)cc4C)CC3)cc2o1 [Example 143, 5-methyl-6-{4-[(2-methyl-1,3-benzoxazol-6-yl)oxy]piperidin-1-yl}-N-(pyridin-4-ylmethyl)pyridazine-3-carboxamide] | 193
Cc1ncc(C)c(N2CCC(Oc3cccnc3)CC2)n1 [Example 19, 2,5-dimethyl-4-(4-(pyridin-3-yloxy)piperidin-1-yl)pyrimidine] | 2920
Cc1c(Cl)nc(CO)nc1N1CCC(Oc2ccc(S(C)(=O)=O)cc2)CC1 [Example 8, (4-chloro-5-methyl-6-(4-(4-(methylsulfonyl)phenoxy)piperidin-1-yl)pyrimidin-2-yl)methanol] | 1360
Cc1ncc(C)c(N2CCC(Oc3ccc4c(c3)C(=O)OC4)CC2)n1 [Example 99, 6-((1-(2,5-Dimethylpyrimidin-4-yl)piperidin-4-yl)oxy)isobenzofuran-1(31-1)-one] | 319
COc1ccc(OC2CCN(c3nnc(C(=O)NCc4nncs4)cc3C)CC2)cn1 [Example 113, 6-{4-[(6-methoxypyridn-3-yl)oxy]piperidin-1-yl}-5-methyl-N-(1,3,4-thiadiazol-2-ylmethyl)pyridazine-3-carboxamide] | 44
Cc1ncc(C)c(N2CC[C@@H](Oc3cccc(C#N)c3)[C@H](F)C2)n1 [Example 71, 3-(((3R,4R)-1-(2,5-dimethylpyrimidin-4-yl)-3-fluoropiperidin-4-yl)oxy)benzonitrile] | 135
6-((1-(6-chloro-2-(hydroxymethyl)-5-methylpyrimidin-4-yl)piperidin-4-yl)oxy)-2-cyclopropylisoindolin-1-one [Example 32] | 185
COc1ccc(OC2CCN(c3nnc(C(=O)NCc4ccccc4Cl)cc3C)CC2)cn1 [Example 195, N-(2-chlorobenzyl)-6-{4-[(6-methoxypyridin-3-yl)oxy]piperidin-1-yl}-5-methylpyridazine-3-carboxamide] | 57
COc1ccc(OC2CCN(c3nc(C(=O)NCc4cnsc4)nc(Cl)c3C)CC2)cn1 [Example 225, 4-chloro-N-(isothiazol-4-ylmethyl)-6-(4-((6-methoxypyridin-3-yl)oxy)piperidin-1-yl)-5-methylpyrimidine-2-carboxamide] | 321
Cc1c(Cl)nc(CO)nc1N1CCC(Oc2ccc3c(c2)C(=O)CCO3)CC1 [Example 21, 6-((1-(6-chloro-2-(hydroxymethyl)-5-methylpyrimidin-4-yl)piperidin-4-yl)oxy)chroman-4-one] | 57
COc1ccc(OC2CCN(c3nnc(C(=O)N[C@@H]4CCc5ccccc54)cc3C)CC2)cn1 [Example 179, N-[(1R)-2,3-dihydro-1H-inden-1-yl]-6-{4-[(6-methoxypyridin-3-yl)oxy]piperidin-1-yl}-5-methylpyridazine-3-carboxamide] | 793
